#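 Tested at 5 concentrations; 48 h exposure; 96-well plates; endpoints linearly interpolated, else capped at highest concentration. TGI marks complete inhibition of growth.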
# How the values were obtained:
# Test in all cases: NCI tumour cell line growth inhibition, 48 h
# [1] = test system: LXFL 529 NSCLC
# [2] = test system: CCRF-CEM leukemia
# [3] = test system: XF 498 CNS
# [4] = test system: A498 renal
# [5] = test system: ACHN renal
# [6] = test system: DLD-1 colon
# [7] = test system: NCI-H23 lung
# [8] = test system: SK-OV-3 ovarian
# [9] = test system: HCT-15 colon
# [10] = test system: UO-31 renal
# [11] = test system: DMS 114 small cell lung
# [12] = test system: HOP-62 NSCLC
# [13] = test system: 786-0 renal
# [14] = test system: IGROV1 ovarian
# [15] = test system: OVCAR-4 ovarian
# [16] = test system: SNB-75 CNS
# [17] = test system: HCT-116 colon
# [18] = test system: CAKI-1 renal
# [19] = test system: SR leukemia
# [20] = test system: M14 melanoma
# [21] = test system: SK-MEL-2 melanoma
# [22] = test system: HOP-92 NSCLC
# [23] = test system: M19-MEL melanoma
# [24] = test system: UACC-62 melanoma
# [25] = test system: NCI-H226 lung
# [26] = test system: RXF-631 renal
# [27] = test system: SF-268 CNS
# [28] = test system: SK-MEL-28 melanoma
# [29] = test system: RPMI-8226 leukemia
# [30] = test system: SN12C renal
# [31] = test system: HCC-2998 colon
# [32] = test system: HL-60(TB) leukemia
# [33] = test system: COLO 205 colon
# [34] = test system: K-562 leukemia
# [35] = test system: NCI-H522 lung
# [36] = test system: MOLT-4 leukemia
# [37] = test system: NCI-H460 lung
# [38] = test system: SF-539 CNS
# [39] = test system: DMS 273 small cell lung
# [40] = test system: SK-MEL-5 melanoma
# [41] = test system: U251 CNS
# [42] = test system: SN12K1 renal
# [43] = test system: LOX IMVI melanoma
# [44] = test system: A549 NSCLC
# [45] = test system: P388 leukemia
# [46] = test system: OVCAR-5 ovarian
# [47] = test system: SF-295 CNS
# [48] = test system: KM12 colon
# [49] = test system: OVCAR-3 ovarian
# [50] = test system: SNB-78 CNS
# [51] = test system: RXF 393 renal
# [52] = test system: KM20L2 colon
# [53] = test system: MCF7 breast
# [54] = test system: EKVX NSCLC
# [55] = test system: SNB-19 CNS
# [56] = test system: HT29 colon
# [57] = test system: UACC-257 melanoma
# [58] = test system: SW-620 colon
# [59] = test system: MALME-3M melanoma
# [60] = test system: HOP-18 NSCLC
# [61] = test system: TK-10 renal
# [62] = test system: OVCAR-8 ovarian
compound,measurement,setting,value
Cc1[nH]c(=O)nc(N(CCO)/N=C/c2ccccc2Cl)c1C(=O)Nc1cc(Cl)cc(Cl)c1,TGI,[1],> 100 µM
same,TGI,[2],> 100 µM
same,TGI,[3],> 100 µM
same,TGI,[4],44.5 µM
same,TGI,[5],> 100 µM
same,TGI,[6],> 100 µM
same,TGI,[7],> 100 µM
same,TGI,[8],49.8 µM
same,TGI,[9],> 100 µM
same,TGI,[10],> 100 µM
same,TGI,[11],> 100 µM
same,TGI,[12],59.1 µM
same,TGI,[13],46.2 µM
same,TGI,[14],> 100 µM
same,TGI,[15],93 µM
same,TGI,[16],63.8 µM
same,TGI,[17],59.4 µM
same,TGI,[18],> 100 µM
same,TGI,[19],> 100 µM
same,TGI,[20],> 100 µM
same,TGI,[21],> 100 µM
same,TGI,[22],69.9 µM
same,TGI,[23],> 100 µM
same,TGI,[24],> 100 µM
same,TGI,[25],53.3 µM
same,TGI,[26],> 100 µM
same,TGI,[27],> 100 µM
same,TGI,[28],> 100 µM
same,TGI,[29],> 100 µM
same,TGI,[30],> 100 µM
same,TGI,[31],> 100 µM
same,TGI,[32],> 100 µM
same,TGI,[33],> 100 µM
same,TGI,[34],> 100 µM
same,TGI,[35],87.9 µM
same,TGI,[36],> 100 µM
same,TGI,[37],> 100 µM
same,TGI,[38],60.1 µM
same,TGI,[39],> 100 µM
Cc1c2cnccc2c(C)c2c1c1ccccc1n2CCCCCCNCc1ccccc1,TGI,[40],4.29 µM
same,TGI,[2],5.13 µM
same,TGI,[41],3.79 µM
same,TGI,[42],1.9 µM
same,TGI,[43],3.81 µM
same,TGI,[3],4.37 µM
same,TGI,[4],3.85 µM
same,TGI,[44],3.74 µM
same,TGI,[6],2.92 µM
same,TGI,[7],3.64 µM
same,TGI,[45],0.732 µM
same,TGI,[8],7.24 µM
same,TGI,[9],3.25 µM
same,TGI,[46],3.31 µM
same,TGI,[10],3.79 µM
same,TGI,[11],3.94 µM
same,TGI,[47],3.47 µM
same,TGI,[12],7.14 µM
same,TGI,[48],3.08 µM
same,TGI,[49],4.01 µM
same,TGI,[14],3.85 µM
same,TGI,[50],5.08 µM
same,TGI,[15],1.25 µM
same,TGI,[16],3.9 µM
same,TGI,[17],1.92 µM
same,TGI,[18],3.48 µM
same,TGI,[51],4.08 µM
same,TGI,[52],3.33 µM
same,TGI,[21],4.24 µM
same,TGI,[22],3.64 µM
same,TGI,[53],3.22 µM
same,TGI,[54],3.94 µM
same,TGI,[23],3.95 µM
same,TGI,[24],4.16 µM
same,TGI,[55],3.75 µM
same,TGI,[56],3.13 µM
same,TGI,[27],2.76 µM
same,TGI,[57],3.61 µM
same,TGI,[28],4.41 µM
same,TGI,[29],3.44 µM
same,TGI,[30],3.27 µM
same,TGI,[31],4.86 µM
same,TGI,[58],1.67 µM
same,TGI,[32],9.35 µM
same,TGI,[59],4.61 µM
same,TGI,[33],3.07 µM
same,TGI,[34],9.36 µM
same,TGI,[35],3.63 µM
same,TGI,[36],0.7 µM
same,TGI,[37],1.86 µM
same,TGI,[60],0.923 µM
same,TGI,[38],3.61 µM
same,TGI,[39],2.47 µM
O=C(Nc1nc2ncn(CCNCc3ccccc3)c2c(=O)[nH]1)c1ccccc1,TGI,[1],> 100 µM
same,TGI,[40],> 100 µM
same,TGI,[2],> 100 µM
same,TGI,[41],> 100 µM
same,TGI,[43],> 100 µM
same,TGI,[4],> 100 µM
same,TGI,[44],> 100 µM
same,TGI,[61],> 100 µM
same,TGI,[5],> 100 µM
same,TGI,[6],> 100 µM
same,TGI,[8],> 100 µM
same,TGI,[9],> 100 µM
same,TGI,[46],> 100 µM
same,TGI,[10],> 100 µM
same,TGI,[11],> 100 µM
same,TGI,[47],> 100 µM
same,TGI,[12],> 100 µM
same,TGI,[48],> 100 µM
same,TGI,[49],> 100 µM
same,TGI,[13],> 100 µM
same,TGI,[14],> 100 µM
same,TGI,[50],> 100 µM
same,TGI,[15],> 100 µM
same,TGI,[16],> 100 µM
same,TGI,[17],> 100 µM
same,TGI,[18],> 100 µM
same,TGI,[51],> 100 µM
same,TGI,[19],> 100 µM
same,TGI,[52],> 100 µM
same,TGI,[20],> 100 µM
same,TGI,[21],> 100 µM
same,TGI,[22],> 100 µM
same,TGI,[54],> 100 µM
same,TGI,[23],> 100 µM
same,TGI,[24],> 100 µM
same,TGI,[56],> 100 µM
same,TGI,[25],> 100 µM
same,TGI,[26],> 100 µM
same,TGI,[27],> 100 µM
same,TGI,[57],> 100 µM
same,TGI,[28],> 100 µM
same,TGI,[62],> 100 µM
same,TGI,[29],> 100 µM
same,TGI,[30],> 100 µM
same,TGI,[31],> 100 µM
same,TGI,[58],> 100 µM
same,TGI,[32],> 100 µM
same,TGI,[59],> 100 µM
same,TGI,[33],> 100 µM
same,TGI,[34],> 100 µM
same,TGI,[35],> 100 µM
same,TGI,[37],> 100 µM
same,TGI,[60],> 100 µM
same,TGI,[38],> 100 µM
same,TGI,[39],> 100 µM
CN(C)CCNC(=O)c1cccc2c1nc(-c1ccccc1)c1ccccc12,TGI,[40],5.52 µM
same,TGI,[2],10.1 µM
same,TGI,[41],18.4 µM
same,TGI,[43],4.03 µM
same,TGI,[4],16.9 µM
same,TGI,[44],15 µM
same,TGI,[61],14.4 µM
same,TGI,[5],13.4 µM
same,TGI,[6],15.3 µM
same,TGI,[7],20.1 µM
same,TGI,[8],19.6 µM
same,TGI,[9],13.1 µM
same,TGI,[46],17.6 µM
same,TGI,[10],6.17 µM
same,TGI,[47],18.7 µM
same,TGI,[12],18.5 µM
same,TGI,[48],20.1 µM
same,TGI,[49],20.7 µM
same,TGI,[13],16.6 µM
same,TGI,[14],18.2 µM
same,TGI,[50],26.4 µM
same,TGI,[15],17.7 µM
same,TGI,[16],19.9 µM
same,TGI,[17],13 µM
same,TGI,[18],18.4 µM
same,TGI,[51],9.43 µM
same,TGI,[20],4.34 µM
same,TGI,[21],23.6 µM
same,TGI,[22],9.24 µM
same,TGI,[54],25.7 µM
same,TGI,[23],17.3 µM
same,TGI,[24],24.4 µM
same,TGI,[55],23.8 µM
same,TGI,[56],13.1 µM
same,TGI,[25],12.5 µM
same,TGI,[26],3.06 µM
same,TGI,[27],18.5 µM
same,TGI,[57],3.48 µM
same,TGI,[28],21.3 µM
same,TGI,[62],19.6 µM
same,TGI,[30],15.2 µM
same,TGI,[31],15.9 µM
same,TGI,[58],15.5 µM
same,TGI,[32],8 µM
same,TGI,[33],15.3 µM
same,TGI,[34],6.32 µM
same,TGI,[36],2.16 µM
same,TGI,[37],13.3 µM
same,TGI,[60],27.9 µM
same,TGI,[38],8.02 µM
same,TGI,[39],13.2 µM
Cc1nc(=O)n2c(c1C(=O)Nc1ccc(Cl)cc1)NCC2,TGI,[4],> 100 µM
same,TGI,[45],> 31.6 µM
same,TGI,[22],> 100 µM
